Test results: patent US12551481B2, “Molecular targets for addiction” (The Jackson Laboratory, priority 2019, dated 2026)

System: Htr1d expression
Assay: Htr1d expression in founder strains of CC/DO mice after repeated exposure to cocaine or sham (saline)
Format: in vivo, mouse
Settings: CAST/EiJ males and 129S1/SvlmJ males; repeated exposure over days
Text: Identification of a target for addiction treatment was undertaken using Diversity Outbred (DO) stock of mice and the eight founding inbred strains used to generate the DO stock, which are a genetically diverse collect of mice used to validate […] trait loci (QTLs) linked to disease susceptibility, drug resistance, or behavioral phenotypes (see, e.g., Saul et al., 2019, Trends in Genetics (PMID: 31133439)). DO mice were developed by random outcross mating of 160 incipient Collaborative Cross recombinant inbred mouse lines, which were created by crossing eight unique and genetically diverse inbred mouse strains. […] Upregulation after cocaine exposure was also observed in PWK/PhJ males.

COC(=O)[C@H]1[C@@H](OC(=O)c2ccccc2)C[C@@H]2CC[C@H]1N2C [cocaine]
Htr1d expression differences, cocaine compared to sham: 2 fold
